In data set [1] the test system is Canidae. As to conditions: subchronic; duration: 13 weeks; oral; diet; Beagle.
The next data set has as its system Mus musculus. To be noted: acute; for LD50: injection.
Data set [2] concerns Rattus norvegicus.
In data set [3] the test system is Rattus norvegicus. To be noted: oral.
In data set [4] the test system is Canidae. As to conditions: oral, capsule, Beagle.
Data set [5] relates to Rattus norvegicus. Description: LD0; higher = less toxic. As to conditions: acute.
In data set [6] the test system is Rattus norvegicus. To be noted: repeat dose other; oral.
Data set [7] relates to Homo sapiens. As to conditions: clinical, inhalation, M/F.
The test system of data set [8] is Rattus norvegicus. As to conditions: for NOAEL: M/F.
The test system of data set [9] is Rattus norvegicus. To be noted: chronic; for NOAEL: Liver: Toxicity.
Data set [10] deals with Homo sapiens. To be noted: clinical; duration: 10 weeks; oral; Inhibition of acetylcholinesterase activity.
The test system of data set [11] is Rattus norvegicus. As to conditions: chronic, M.
The test system of data set [12] is Homo sapiens. As to conditions: clinical, oral, M/F.
Another data set deals with Oryctolagus sp. As to conditions: acute; dermal; occlusive; New Zealand.
For another data set, the system named is Gallus sp. To be noted: repeat dose other; oral.
[13] abbreviates: subchronic, duration: 13 weeks, oral, diet.
The mark [14] stands for this setting: subchronic, duration: 13 weeks, diet, F, Crl.
[15] abbreviates: subchronic, duration: 13 weeks, diet, M, Crl.
Where [16] appears, read: radioactive iodide uptake inhibition (raiu) in the thyroid.
Where [17] appears, read: duration: 9 months, M/F, Decreased bodyweights, mortality, prostatic malfunction, foci of softening in the brainstem, & testicular atrophy.

Structures are written as SMILES.

Regarding `CCCCCCO` [1-Hexanol], the “LOAEL (% diet)” value in the data set with Canidae [1] and in the data set with Rattus norvegicus [2] (setting [13]) was 1 throughout. For the same molecule, the “NOAEL (% diet)” value with Canidae [1] and with Rattus norvegicus [2] (setting [13]) was > 0.5 each time. Moreover, in the data set with Mus musculus (intravenous), the LD50 (commonly the dose at which mortality reaches 50%) was determined as 100 mg/kg. The LC50 in the data set with Rattus norvegicus [2] (acute, inhalation) is > 21 µg/mL. In addition, the NOAEL (usually the highest tested level that showed no adverse finding) with Rattus norvegicus [2] (developmental, inhalation, Sprague-Dawley) is > 3500 mg/m3; in the data set on Rattus norvegicus [2] (reproduction developmental, inhalation, F, Sprague-Dawley), > 3500 mg/m3; in the data set on Rattus norvegicus [3] (setting [14]), 1240 mg/kg-day; in the data set on Rattus norvegicus [3] (setting [15]), 1130 mg/kg-day. For the same molecule, the NOEL in the data set with Rattus norvegicus [3] (setting [14]) was found to be 1240 mg/kg-day; with Rattus norvegicus [3] (setting [15]) it was 1130 mg/kg-day.

As to `Cl.c1ccc([C@H]2CN3CCSC3=N2)cc1` [Levamisole hydrochloride], the LOEL came to 1.25 mg/kg-day in the data set with Canidae [4] (chronic, duration: 14 months, Re-emergence of haemolytic anaemia) and 1.25 mg/kg-day in the data set on Canidae [4] (immunotoxicology, duration: 14 months, Re-emergence of haemolytic anaemia).

Molecule `SCc1ccccc1` [Benzenemethanethiol] showed an LC50 in the data set with Mus musculus (inhalation, Swiss) of 904 mg/m3. Besides, the LD50 is 373 mg/kg in the data set with Rattus norvegicus [2] (acute, injection, Intraperitoneal, Wistar) and 493 mg/kg in the data set with Rattus norvegicus [2] (acute, oral, gavage, Wistar). Further, in the data set with Rattus norvegicus [5] (dermal, semiocclusive, Sprague-Dawley), the LD0 is ≥ 2000 mg/kg.

Regarding `ClCCl` [Dichloromethane], the LOAEL (usually the lowest tested level that showed an adverse finding) with Rattus norvegicus [6] was found to be 50 mg/kg-day; in the data set on Homo sapiens [7] (duration: 1 days, chamber, neurological), 1040 mg/m3; with Rattus norvegicus [8] (chronic, duration: 14 weeks, inhalation, unknown, hepatic) it was 86.8 mg/m3. For the same molecule, the NOAEL in the data set on Rattus norvegicus [6] amounted to 5.85 mg/kg-day; in the data set on Rattus norvegicus [8] (chronic, duration: 2 years, inhalation, Sprague-Dawley, hepatic) it was 174 mg/m3; with Rattus norvegicus [8] (chronic, duration: 104 weeks, oral, drinking water, Fischer-344, hepatic), 6 mg/kg-day; in the data set with Rattus norvegicus [9] (duration: 2 years, inhalation, intermittent), 695 mg/m3; in the data set with Rattus norvegicus [9] (duration: 24 months, oral, drinking water), 5.85 mg/kg-day.

The molecule `COP(=O)(OC)C(O)C(Cl)(Cl)Cl` (configuration not stated) [Trichlorfon] had an LOEL in the data set on Homo sapiens [10] of 0.2 mg/kg-day.

As to `C1COCCO1` [1,4-Dioxane], the LOAEL in the data set with Rattus norvegicus [6] came out at 1 mg/kg-day; in the data set on Rattus norvegicus [11] (inhalation, atrophy and respiratory metaplasia of the olfactory epithelium), 180 mg/m3; in the data set with Rattus norvegicus [8] (chronic, duration: 104 weeks, inhalation, whole body, M, Fischer 344, respiratory), 180 mg/m3. Also, the NOAEL with Rattus norvegicus [6] stood at 0.5 mg/kg-day; in the data set with Rattus norvegicus [11] (oral, liver and kidney toxicity) it was 9.6 mg/kg-day; in the data set on Homo sapiens [7] (duration: 2 hours, ocular), 72.1 mg/m3; in the data set with Rattus norvegicus [8] (chronic, duration: 716 days, oral, drinking water, Sherman Wistar, hepatic), 9.6 mg/kg-day; with Rattus norvegicus [8] (developmental, duration: 9 days, oral, gavage, Sprague-Dawley, developmental) it was 516 mg/kg-day; in the data set on Rattus norvegicus [8] (subchronic, duration: 13 weeks, oral, drinking water, Fischer 344, hepatic), 52 mg/kg-day.

Regarding `OC(O)C(Cl)(Cl)Cl` [Chloral hydrate], in the data set on Homo sapiens [12] (central nervous system depression and gi irritation in humans), the LOAEL is 10.7 mg/kg-day.

In turn, `O=C(O)c1ccc(C(=O)O)cc1` [Terephthalic acid] displayed an NOEL in the data set on Rattus norvegicus [9] (duration: 2 years, oral, diet, Bladder: Hyperplasia) of 142 mg/kg-day. For the same molecule, the LD0 with Rattus norvegicus [5] (oral) was found to be 2000 mg/kg.

As to `ON=C1CCCCC1` [Cyclohexanone oxime], the LD50 is 250 mg/kg in the data set on Mus musculus (Intraperitoneal) and > 5000 mg/kg in the data set on Oryctolagus sp.. For the same molecule, the LD0 in the data set with Rattus norvegicus [5] (oral, gavage, Fischer 344) was > 300 mg/kg.

For `[O-][Cl+3]([O-])([O-])[O-]` [Perchlorate], in the data set on Homo sapiens [12] (setting [16]), the LOEL was determined as 0.02 mg/kg-day and the NOEL was 0.007 mg/kg-day.

For the molecule `[Ba+2].[OH-].[OH-]` [Barium hydroxide], the figures for the LOAEL in the data set with Gallus sp. and in the data set on Rattus norvegicus [6] were 41.7 mg/kg-day and 19.8 mg/kg-day, respectively. This molecule registered an NOAEL in the data set with Gallus sp. of 20.8 mg/kg-day.

In the data set with Canidae [4] (setting [17]), `N=C(N)c1ccc(N=NNc2ccc(C(=N)N)cc2)cc1` [Diminazene] registered an LOEL of 60 mg/kg-day and an NOEL of 20 mg/kg-day.

As for `O=S(=O)([O-])c1cc(Nc2nc(Nc3ccccc3)nc(N3CCOCC3)n2)ccc1C=Cc1ccc(Nc2nc(Nc3ccccc3)nc(N3CCOCC3)n2)cc1S(=O)(=O)[O-].[Na+].[Na+]`, the LD50 in the data set on Rattus norvegicus [2] (acute, oral, Sprague-Dawley) is 7000 mg/kg; in the data set with Rattus norvegicus [2] (acute, oral, gavage, Sprague-Dawley), > 5000 mg/kg. Moreover, the NOAEL with Rattus norvegicus [2] (chronic, duration: 24 months, oral, diet, F, Wistar) turned out to be 791 mg/kg-day; in the data set on Rattus norvegicus [2] (chronic, duration: 24 months, oral, diet, M, Wistar), 524 mg/kg-day; in the data set with Rattus norvegicus [2] (short-term, duration: 14 days, oral, gavage, F, Wistar) it was 1000 mg/kg-day; in the data set with Rattus norvegicus [2] (short-term, duration: 14 days, oral, gavage, M, Wistar), 1000 mg/kg-day; in the data set with Rattus norvegicus [3] (short-term, duration: 28 days, gavage, Wistar) it was 825 mg/kg-day. In the data set on Rattus norvegicus [5] (dermal, semiocclusive, Wistar), the LD0 was > 2000 mg/kg.

These data come from EPA's ToxValDB 9.5.
